Assays:
[1] = test system: peritoneal exudate cell (PEC) count; test: PEC count in mice after intraperitoneal administration; format: in vivo, Slc: ddY mice; settings: intraperitoneal injection of 200 μL of 10 mg/mL, 22 hours after administration, compared with control non-treated mice (FIG. 4(a))
Description: The test sample AU-1833C was dissolved in DMSO so as to be 50 mg/mL and then diluted five-fold with saline (product name: Otsuka normal saline, manufactured by Otsuka Pharmaceutical Co., Ltd.) to prepare a test sample solution of 10 mg/mL (including 20% DMSO). The animals used were Slc: ddY mice (female, 6-week old) and grouped as follows. The mice purchased at the age of 5 weeks were acclimated for 5 days under a condition of free access to water and feed (regular diet (product name: CE-2, manufactured by CLEA Japan, Inc.)). […] The mice after a lapse of 22 hours from administration were sacrificed under isoflurane anesthesia, 5 mL of saline was intraperitoneally injected, the abdominal area was rubbed about 10 times, and then intraperitoneal cells were collected by collecting the saline from the abdominal cavity. Using a portion of the collected saline and a Turk's solution (product name: Turk's solution, manufactured by Wako Pure Chemical Industries, Ltd.), a concentration of PEC (cells/mL), intraperitoneally exudated nucleated cells such as white blood cells, was measured. The measured PEC concentration was multiplied by the amount of saline intraperitoneally injected (5 mL) to calculate a PEC count per mouse (cells/mouse).

[2] = test system: mouse-derived macrophage-like cell line (RAW264); test: TNF-α production-inducing activity in cells; format: cell-based; settings: 24 hours
Description: A TNF-α production-inducing activity in a mouse-derived macrophage-like cell line (RAW264, provided: RIKEN BioResource Research Center) was investigated. Using, as test samples, AU-1833C (synthesized in Example 1), lentinan (product name: Lentinan, manufactured by FUJIFILM Wako Pure Chemical Corporation) and fucoidan (product name: Fucoidan Fucus vesiculosus-derived, manufactured by Sigma-Aldrich Co. LLC), test sample solutions were prepared so that the final concentrations of the test samples were 50, 100, and 200 μg/mL. First, all test samples were dissolved in dimethylsulfoxide (DMSO) so as to have a 1,000-fold concentration of the final concentration, and then 100-fold dilution was carried out with deionized water thereby to prepare test sample solutions having a 10-fold concentration (including 1% DMSO) of the final concentrations. […] A ratio of a TNF-α concentration in each test sample group relative to a TNF-α concentration in the non-treated group was calculated from the measured TNF-α concentrations and defined as the TNF-α production-inducing activity.

TNF-α production of PEC = test: Amount of induced TNF-α production of PEC from treated mice when treated with LPS; format: in vivo, Slc: ddY mice; settings: PEC collected 22 hours after intraperitoneal administration, LPS 100 ng/mL for 3 hours
Description: The test sample AU-1833C was dissolved in DMSO so as to be 50 mg/mL and then diluted five-fold with saline (product name: Otsuka normal saline, manufactured by Otsuka Pharmaceutical Co., Ltd.) to prepare a test sample solution of 10 mg/mL (including 20% DMSO).
The animals used were Slc: ddY mice (female, 6-week old) and grouped as follows.
The mice purchased at the age of 5 weeks were acclimated for 5 days under a condition of free access to water and feed (regular diet (product name: CE-2, manufactured by CLEA Japan, Inc.)). Body weights of the mice after acclimation at the age of 6 weeks were measured and the mice were grouped based on the measured values so that there was no difference in the body weight among the groups. 200 μL of the test sample solutions or 20% DMSO saline as the non-treated group was respectively administered to the mice by intraperitoneal injection. […] Using a portion of the collected saline and a Turk's solution (product name: Turk's solution, manufactured by Wako Pure Chemical Industries, Ltd.), a concentration of PEC (cells/mL), intraperitoneally exudated nucleated cells such as white blood cells, was measured. The measured PEC concentration was multiplied by the amount of saline intraperitoneally injected (5 mL) to calculate a PEC count per mouse (cells/mouse). […]

O=C1OCCCCCCOC(=O)c2ccccc2C(=O)OCCCCCCOC(=O)c2ccccc21 [AU-1833C, 7,8,9,10,11,12,19,20,21,22,23,24-dodecahydro-dibenzo[1,6,13,18]-tetraoxacyclooctadecine-2,5,14,17-tetrone]
PEC counts [1]: significantly higher PEC counts
TNF-α production-inducing activity (ratio of TNF-α concentration relative to non-treated group) ([2]; RAW264 cells, 50, 100 and 200 μg/mL, ELISA, compared with control non-treated group (FIG. 3)): significantly higher than that of the control non-treated group
TNF-α production-inducing activity compared with lentinan and fucoidan at the same concentration ([2]; RAW264 cells, each of 50, 100 and 200 μg/mL, ELISA (FIG. 3)): significantly higher than those of lentinan and fucoidan at the same concentration
TNF-α production amount per cell in PEC (TNF-α production of PEC; compared with control non-treated mice (FIG. 4(b))): significantly higher TNF-α production amount per cell in PEC
PEC-derived TNF-α production amount per mouse (TNF-α production of PEC; compared with control non-treated mice (FIG. 4(c))): significantly higher PEC-derived TNF-α production amount per mouse

Source: patent US20220151985A1, “IMMUNOSTIMULATOR AND FOOD OR BEVERAGE FOR IMMUNOSTIMULATION” (AMINO UP CO., LTD., priority 2019, published 2022)
